In US6914045B2, “Glycopeptide antibiotics” (Wyeth Holdings Corporation, priority 2001, dated 2005):
Values after ≈ are worked out from the molar mass of the structure shown.

Columns and labels:
Assay in all cases: in vitro antibacterial evaluation, MIC by broth dilution
Assay type in all cases: cell-based
Escherichia coli = details: 18 hours at 35° C.
Outline: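 Inoculum 5×10^5 CFU/mL; concentrations 64 to 0.06 μg/mL; MIC defined as lowest inhibitory level. Conducted by broth dilution under NCCLS guidelines.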

Staphylococcus sp. = details: broth dilution, 18 hours at 35° C.
Outline: (§1)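 Step 1: dilute antibiotic across 64-0.06 μg/mL in Muller-Hinton II […]. Step 2: inoculate at 5×10^5 CFU/mL.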

Streptococcus sp. = details: broth dilution, 18 hours at 35° C.
Outline: as §1

Enterococcus sp. = details: broth dilution, 18 hours at 35° C.
Outline: as §1

CC(C)CC(=O)OC1C(O)C(CO)OC(OC2C(CO)OC(Oc3ccc(CC4NC(=O)C(C(C)c5cccc(F)c5)NC(=O)CNC(=O)C(CO)NC(=O)C(C(O)C5CNC(=N)N5C5OC(CO)C(O)C(O)C5O)NC(=O)C(C(O)C5CNC(=N)N5)NC4=O)cc3)C(O)C2O)C1O (stereo not drawn) [Example 264b, Cyclo[glycyl-3-fluoro-β-methylphenylalanyl-O-[4-O-[3-O-(3-methylbutanoyl)hexopyranosyl]-hexopyranosyl]tyrosyl-3-(2-iminoimidazolidin-4-yl)seryl-3-(3-hexopyranosyl-2-iminoimidazolidin-4-yl)serylseryl]]
MIC Escherichia coli (ATCC 25922) (Escherichia coli; Escherichia coli (ATCC 25922)): 64 µg/mL (≈ 45.8 µM) | MIC Escherichia coli (GC 4559) (Escherichia coli; Escherichia coli (GC 4559)): >64 µg/mL | MIC Escherichia coli (GC 4560) (Escherichia coli; Escherichia coli (GC 4560)): 4 µg/mL (≈ 2.86 µM) | MIC Coagulase Negative Staphylococcus (GC 4547) (Staphylococcus sp.): 4 µg/mL (≈ 2.86 µM) | MIC Coagulase Negative Staphylococcus (GC 4548) (Staphylococcus sp.): 4 µg/mL (≈ 2.86 µM) | MIC Coagulase Negative Staphylococcus (GC 4549) (Staphylococcus sp.): 4 µg/mL (≈ 2.86 µM) | MIC Coagulase Negative Staphylococcus (GC 4551) (Staphylococcus sp.): 8 µg/mL (≈ 5.72 µM) | MIC Staphylococcus aureus (ATCC 29213) (Staphylococcus sp.): 8 µg/mL (≈ 5.72 µM) | MIC Staphylococcus aureus (GC 1131) (Staphylococcus sp.): 8 µg/mL (≈ 5.72 µM) | MIC Staphylococcus aureus (GC 4541) (Staphylococcus sp.): 8 µg/mL (≈ 5.72 µM) | MIC Staphylococcus aureus (GC 4542) (Staphylococcus sp.): 8 µg/mL (≈ 5.72 µM) | MIC Staphylococcus aureus (GC 4544) (Staphylococcus sp.): 8 µg/mL (≈ 5.72 µM) | MIC Staphylococcus aureus (GC 4545) (Staphylococcus sp.): 4 µg/mL (≈ 2.86 µM) | MIC Staphylococcus aureus-SMITH (GC 4543) (Staphylococcus sp.): 8 µg/mL (≈ 5.72 µM) | MIC Staphylococcus haemolyticus (GC 4546) (Staphylococcus sp.): 4 µg/mL (≈ 2.86 µM) | MIC Staphylococcus aureus (ATCC 29213) (Staphylococcus sp.; strain ATCC 29213): 8 µg/mL (≈ 5.72 µM) | MIC Staphylococcus aureus (GC 1131) (Staphylococcus sp.; strain GC 1131): 8 µg/mL (≈ 5.72 µM) | MIC Staphylococcus aureus (GC 4541) (Staphylococcus sp.; strain GC 4541): 8 µg/mL (≈ 5.72 µM) | MIC Staphylococcus aureus (GC 4542) (Staphylococcus sp.; strain GC 4542): 8 µg/mL (≈ 5.72 µM) | MIC Staphylococcus aureus (GC 4544) (Staphylococcus sp.; strain GC 4544): 8 µg/mL (≈ 5.72 µM) | MIC Staphylococcus aureus (GC 4545) (Staphylococcus sp.; strain GC 4545): 4 µg/mL (≈ 2.86 µM) | MIC Staphylococcus haemolyticus (GC 4546) (Staphylococcus sp.; strain GC 4546): 4 µg/mL (≈ 2.86 µM) | MIC Coagulase Negative Staphylococcus (GC 4547) (Staphylococcus sp.; strain GC 4547): 4 µg/mL (≈ 2.86 µM) | MIC Coagulase Negative Staphylococcus (GC 4548) (Staphylococcus sp.; strain GC 4548): 4 µg/mL (≈ 2.86 µM) | MIC Coagulase Negative Staphylococcus (GC 4549) (Staphylococcus sp.; strain GC 4549): 4 µg/mL (≈ 2.86 µM) | MIC Coagulase Negative Staphylococcus (GC 4551) (Staphylococcus sp.; strain GC 4551): 8 µg/mL (≈ 5.72 µM) | MIC Staphylococcus aureus-SMITH (GC 4543) (Staphylococcus sp.; strain SMITH GC 4543): 8 µg/mL (≈ 5.72 µM) | MIC Streptococcus agalactiae (GC 4564) (Streptococcus sp.; strain GC 4564): 4 µg/mL (≈ 2.86 µM) | MIC Streptococcus pyogenes (ID-3187) (Streptococcus sp.; strain ID-3187): 4 µg/mL (≈ 2.86 µM) | MIC Enterococcus avium (GC 4558) (Enterococcus sp.; Enterococcus avium (GC 4558)): 64 µg/mL (≈ 45.8 µM) | MIC Enterococcus faecalis (ATCC 29212) (Enterococcus sp.; Enterococcus faecalis (ATCC 29212)): 64 µg/mL (≈ 45.8 µM) | MIC Enterococcus faecalis (GC 4553) (Enterococcus sp.; Enterococcus faecalis (GC 4553)): 64 µg/mL (≈ 45.8 µM) | MIC Enterococcus faecalis (GC 4554) (Enterococcus sp.; Enterococcus faecalis (GC 4554)): 64 µg/mL (≈ 45.8 µM) | MIC Enterococcus faecium (GC 2243) (Enterococcus sp.; Enterococcus faecium (GC 2243)): 64 µg/mL (≈ 45.8 µM) | MIC Enterococcus faecium (GC 4556) (Enterococcus sp.; Enterococcus faecium (GC 4556)): 64 µg/mL (≈ 45.8 µM) | MIC Enterococcus faecium (GC 4557) (Enterococcus sp.; Enterococcus faecium (GC 4557)): 8 µg/mL (≈ 5.72 µM) | MIC Enterococcus faecalis (ATCC 29212) (Enterococcus sp.; strain ATCC 29212): 64 µg/mL (≈ 45.8 µM) | MIC Enterococcus faecalis (GC 2242) (Enterococcus sp.; strain GC 2242): 32 µg/mL (≈ 22.9 µM) | MIC Enterococcus faecium (GC 2243) (Enterococcus sp.; strain GC 2243): 64 µg/mL (≈ 45.8 µM) | MIC Enterococcus faecalis (GC 4552) (Enterococcus sp.; strain GC 4552): 64 µg/mL (≈ 45.8 µM) | MIC Enterococcus faecalis (GC 4553) (Enterococcus sp.; strain GC 4553): 64 µg/mL (≈ 45.8 µM) | MIC Enterococcus faecalis (GC 4554) (Enterococcus sp.; strain GC 4554): 64 µg/mL (≈ 45.8 µM) | MIC Enterococcus faecium (GC 4556) (Enterococcus sp.; strain GC 4556): 64 µg/mL (≈ 45.8 µM) | MIC Enterococcus faecium (GC 4557) (Enterococcus sp.; strain GC 4557): 8 µg/mL (≈ 5.72 µM) | MIC Enterococcus avium (GC 4558) (Enterococcus sp.; strain GC 4558): 64 µg/mL (≈ 45.8 µM)
